Test results: patent US6624143B1, “Calcium salts of lipopeptide antibiotics, method for producing same and their use” (Aventis Pharma Deutschland GmbH, priority 1998, dated 2003)
Structures can show the parent of a compound that is named as a salt. Where two headings read alike, the source gives them in different places.

How the values were obtained:
Assay type in all cases: cell-based
[1] = system: monkey blood; settings: rhesus monkey, 3 h
Procedure: For the measurement of hemolytic activity, freshly taken, venous human, Rhesus monkey or beagle dog blood is used. The blood is collected in heparinized tubes and distributed in aliquots of 200 μl into 12 polyethylene tubes. One aliquot is treated with 200 μl of distilled water and used as a 100% standard, another is mixed with 200 μl of physiological saline solution (0.9% NaCl). 200 μl each of substance dilutions in physiological saline solution to 1600, 800, 400, 200, 100, 50, 25, 12.5, 6.25 and 3.125 mg/l are distributed into the other tubes. All tubes are carefully swung and then incubated for 3 hours at 37° C. The 100% standard is then made up with 5 ml of distilled water, the other tubes with 5 ml each of physiological saline solution, and centrifuged at 700 g for 5 minutes.
The hemolysis is determined by measurement of the absorption of the supernatant in a spectrophotometer at a wavelength of 540 nm. The absorption of the standard with complete hemolysis is set at 100%. The absorption of the test preparation dilutions and of the 0% standard are measured and indicated as a percentage of the maximally inducible hemolysis.

[2] = system: Staphyloc. aureus, 11HT3; test: serial dilution test, MIC; settings: S
Source text: (§1) Table 3: In-vitro activity of the A1437D Ca salt against Gram-positive bacteria in the serial dilution test indicated as the minimum inhibitory concentration (MIC)

[3] = system: Staph. aureus, 11GO64; test: serial dilution test, MIC; settings: Staphylococcus aureus, oflR, oxaR, eryR, novR
Source text: as §1

[4] = system: Enteroc. faecalis, DU18; test: serial dilution test, MIC; settings: tetR, novR
Source text: as §1

[5] = system: Staph. epidermidis, GO20; test: serial dilution test, MIC; settings: Staphylococcus epidermidis, tetR
Source text: as §1

[6] = system: Enteroc. faecium, HM3; test: serial dilution test, MIC; settings: teiR, vanR, eryR
Source text: as §1

[7] = system: Staph. aureus, 11DU5; test: serial dilution test, MIC; settings: Staphylococcus aureus, novR, tetR
Source text: as §1

[8] = system: Enteroc. faecium, HT12; test: serial dilution test, MIC; settings: teiR, vanR, eryR, tetR
Source text: as §1

[9] = system: Staph. aureus, ATCC 13709; test: serial dilution test, MIC; settings: Staphylococcus aureus, ATCC13709
Source text: as §1

[10] = system: Streptoc. pneumoniae 30B12; test: serial dilution test, MIC; settings: eryR
Source text: as §1

[11] = system: Streptoc. pyogenes, A1F16; test: serial dilution test, MIC; settings: eryR
Source text: as §1

[12] = system: Enteroc. faecalis, UC5; test: serial dilution test, MIC; settings: ATCC 29212 novR
Source text: as §1

[13] = system: Staph. epidermidis, GO42; test: serial dilution test, MIC; settings: Staphylococcus epidermidis, oxaR
Source text: as §1

[14] = system: Streptoc. milleri, GR12; test: serial dilution test, MIC; settings: S
Source text: as §1

[15] = system: Enteroc. faecium, IP2; test: serial dilution test, MIC; settings: teiR, vanR, eryR, tetR
Source text: as §1

[16] = system: Enteroc. gallinarium, HM8; test: serial dilution test, MIC; settings: vanR, tetR
Source text: as §1

[17] = system: Staphyloc. coagul. negativ; test: serial dilution test, MIC; settings: oflR, oxaR, tetR
Source text: as §1

[18] = system: Streptoc. mitis, GR16; test: serial dilution test, MIC; settings: eryR
Source text: as §1

[19] = system: Streptoc. gr. G, GOCB2; test: serial dilution test, MIC; settings: tetR, rifR, novR
Source text: as §1

[20] = system: Streptoc. pyogenes, A1SJ1; test: serial dilution test, MIC; settings: eryR
Source text: as §1

[21] = system: Enteroc. faecium, AP9; test: serial dilution test, MIC; settings: vanR, teiR
Source text: as §1

[22] = system: Staph. aureus, 11CB20; test: serial dilution test, MIC; settings: Staphylococcus aureus, oxaR, eryR, tetR
Source text: as §1

[23] = system: Enteroc. faecalis, HM9; test: serial dilution test, MIC; settings: novR, vanR, eryR
Source text: as §1

[24] = system: Staph. aureus, 11HT1; test: serial dilution test, MIC; settings: Staphylococcus aureus, novR
Source text: as §1

With CC(C)CCCCCCC/C=C\CC(=O)N[C@@H](CC(N)=O)C(=O)N[C@@H]1C(=O)N2CCCC[C@@H]2C(=O)N[C@@H]([C@H](C)C(=O)O)C(=O)N[C@@H](CC(=O)O)C(=O)NCC(=O)N[C@@H](CC(=O)O)C(=O)NCC(=O)N[C@H]([C@@H](C)N)C(=O)N[C@@H](C(C)C)C(=O)N2CCC[C@H]2C(=O)N[C@@H]1C [A1437D Ca salt] the “in vitro hemolysis, percentage of the maximally inducible hemolysis” value (from here on “in vitro hemolysis, percentage”) ([1]; 12.5 mg/l) was 0%, the “in vitro hemolysis, percentage” value ([1]; 25 mg/l) was 0% and the “in vitro hemolysis, percentage” value ([1]; 50 mg/l) was 0%. The “in vitro hemolysis, percentage” value ([1]; 100 mg/l) was 3%, the “in vitro hemolysis, percentage” value ([1]; 200 mg/l) was 6% and the “in vitro hemolysis, percentage” value ([1]; 400 mg/l) was 9%. The “in vitro hemolysis, percentage” value ([1]; 800 mg/l) was 15%, the “in vitro hemolysis, percentage” value ([1]; 1600 mg/l) was 19% and the MIC [2] was 0.04 µg/mL. For the same compound, the MIC [3] was 0.6 µg/mL, the MIC [4] was 0.6 µg/mL and the MIC [5] was 0.3 µg/mL. It also gave an MIC [6] of 0.6 µg/mL, an MIC [7] of 0.08 µg/mL and an MIC [8] of 0.6 µg/mL. For the same compound, the MIC [9] was 0.6 µg/mL, the MIC [10] was 0.3 µg/mL and the MIC [11] was 0.6 µg/mL. For the same compound, the MIC [12] was 2.5 µg/mL, the MIC [13] was 0.3 µg/mL and the MIC [14] was 0.3 µg/mL. It also gave an MIC [15] of 0.6 µg/mL, an MIC [16] of 0.15 µg/mL and an MIC [17] of 0.3 µg/mL. It also gave an MIC [18] of 0.3 µg/mL, an MIC [19] of 0.3 µg/mL and an MIC [20] of 0.6 µg/mL. For the same compound, the MIC [21] was 0.6 µg/mL, the MIC [22] was 0.6 µg/mL and the MIC [23] was 2.5 µg/mL. The MIC [24] was 0.15 µg/mL.
